± gives the expanded uncertainty stated by the source.
Experiment: activity coefficient (dimensionless); of the first substance listed, at infinite dilution; xn = mol fraction of the nth substance listed
Conditions: 101 kPa, Liquid, Chromatography, x1 = 0

CCCCCC [hexane] + CCCCOP(=O)([O-])OCCCC.CCCCn1cc[n+](C)c1
activity coefficient (313.15 K): 4.73 ± 0.28 | activity coefficient (323.15 K): 4.63 ± 0.28 | activity coefficient (333.15 K): 4.51 ± 0.27 | activity coefficient (343.15 K): 4.45 ± 0.26 | activity coefficient (353.15 K): 4.32 ± 0.26 | activity coefficient (363.15 K): 4.24 ± 0.25

CCCCCCC [heptane] + CCCCOP(=O)([O-])OCCCC.CCCCn1cc[n+](C)c1
activity coefficient (313.15 K): 5.5 ± 0.33 | activity coefficient (323.15 K): 5.38 ± 0.32 | activity coefficient (333.15 K): 5.29 ± 0.31 | activity coefficient (343.15 K): 5.21 ± 0.31 | activity coefficient (353.15 K): 5.12 ± 0.3 | activity coefficient (363.15 K): 5.05 ± 0.3

C1CCCCC1 [cyclohexane] + CCCCOP(=O)([O-])OCCCC.CCCCn1cc[n+](C)c1
activity coefficient (313.15 K): 3.09 ± 0.18 | activity coefficient (323.15 K): 2.99 ± 0.18 | activity coefficient (333.15 K): 2.84 ± 0.17 | activity coefficient (343.15 K): 2.76 ± 0.16 | activity coefficient (353.15 K): 2.68 ± 0.16 | activity coefficient (363.15 K): 2.59 ± 0.15

Cc1cccc(C)c1 [1,3-dimethylbenzene] + CCCCOP(=O)([O-])OCCCC.CCCCn1cc[n+](C)c1
activity coefficient (313.15 K): 1.99 ± 0.12 | activity coefficient (323.15 K): 1.95 ± 0.12 | activity coefficient (333.15 K): 1.92 ± 0.11 | activity coefficient (343.15 K): 1.88 ± 0.11 | activity coefficient (353.15 K): 1.85 ± 0.11 | activity coefficient (363.15 K): 1.83 ± 0.11

C=Cc1ccccc1 [styrene] + CCCCOP(=O)([O-])OCCCC.CCCCn1cc[n+](C)c1
activity coefficient (313.15 K): 1.19 ± 0.07 | activity coefficient (323.15 K): 1.15 ± 0.06 | activity coefficient (333.15 K): 1.09 ± 0.06 | activity coefficient (343.15 K): 1.07 ± 0.06 | activity coefficient (353.15 K): 1.03 ± 0.06 | activity coefficient (363.15 K): 0.98 ± 0.05

CCCCCCCCCC [decane] + CCCCOP(=O)([O-])OCCCC.CCCCn1cc[n+](C)c1
activity coefficient (313.15 K): 10 ± 0.6 | activity coefficient (323.15 K): 9.65 ± 0.58 | activity coefficient (333.15 K): 9.16 ± 0.55 | activity coefficient (343.15 K): 8.78 ± 0.52 | activity coefficient (353.15 K): 8.54 ± 0.51 | activity coefficient (363.15 K): 8.25 ± 0.49

CCCCC [pentane] + CCCCOP(=O)([O-])OCCCC.CCCCn1cc[n+](C)c1
activity coefficient (313.15 K): 4.12 ± 0.25 | activity coefficient (323.15 K): 4.05 ± 0.24 | activity coefficient (333.15 K): 3.93 ± 0.23 | activity coefficient (343.15 K): 3.86 ± 0.23 | activity coefficient (353.15 K): 3.79 ± 0.23 | activity coefficient (363.15 K): 3.72 ± 0.22

CC(C)CC(C)(C)C [2,2,4-trimethylpentane] + CCCCOP(=O)([O-])OCCCC.CCCCn1cc[n+](C)c1
activity coefficient (313.15 K): 6.2 ± 0.37 | activity coefficient (323.15 K): 6.12 ± 0.36 | activity coefficient (333.15 K): 6.06 ± 0.36 | activity coefficient (343.15 K): 6.01 ± 0.36 | activity coefficient (353.15 K): 5.94 ± 0.35 | activity coefficient (363.15 K): 5.88 ± 0.35

Cc1ccccc1C [1,2-dimethylbenzene] + CCCCOP(=O)([O-])OCCCC.CCCCn1cc[n+](C)c1
activity coefficient (313.15 K): 1.8 ± 0.11 | activity coefficient (323.15 K): 1.77 ± 0.1 | activity coefficient (333.15 K): 1.73 ± 0.1 | activity coefficient (343.15 K): 1.71 ± 0.1 | activity coefficient (353.15 K): 1.68 ± 0.1 | activity coefficient (363.15 K): 1.65 ± 0.1

CCCCCCCC [octane] + CCCCOP(=O)([O-])OCCCC.CCCCn1cc[n+](C)c1
activity coefficient (313.15 K): 6.54 ± 0.39 | activity coefficient (323.15 K): 6.43 ± 0.38 | activity coefficient (333.15 K): 6.36 ± 0.38 | activity coefficient (343.15 K): 6.28 ± 0.37 | activity coefficient (353.15 K): 6.21 ± 0.37 | activity coefficient (363.15 K): 6.15 ± 0.37

C1=CCCCC1 [cyclohexene] + CCCCOP(=O)([O-])OCCCC.CCCCn1cc[n+](C)c1
activity coefficient (313.15 K): 2.2 ± 0.13 | activity coefficient (323.15 K): 2.15 ± 0.13 | activity coefficient (333.15 K): 2.11 ± 0.13 | activity coefficient (343.15 K): 2.05 ± 0.12 | activity coefficient (353.15 K): 2.02 ± 0.12 | activity coefficient (363.15 K): 1.96 ± 0.12

Cc1ccccc1 [toluene] + CCCCOP(=O)([O-])OCCCC.CCCCn1cc[n+](C)c1
activity coefficient (313.15 K): 1.39 ± 0.08 | activity coefficient (323.15 K): 1.35 ± 0.08 | activity coefficient (333.15 K): 1.32 ± 0.07 | activity coefficient (343.15 K): 1.3 ± 0.07 | activity coefficient (353.15 K): 1.29 ± 0.07 | activity coefficient (363.15 K): 1.27 ± 0.07

Cc1ccc(C)cc1 [1,4-dimethylbenzene] + CCCCOP(=O)([O-])OCCCC.CCCCn1cc[n+](C)c1
activity coefficient (313.15 K): 1.91 ± 0.11 | activity coefficient (323.15 K): 1.86 ± 0.11 | activity coefficient (333.15 K): 1.82 ± 0.11 | activity coefficient (343.15 K): 1.78 ± 0.1 | activity coefficient (353.15 K): 1.75 ± 0.1 | activity coefficient (363.15 K): 1.72 ± 0.1

c1ccccc1 [benzene] + CCCCOP(=O)([O-])OCCCC.CCCCn1cc[n+](C)c1
activity coefficient (313.15 K): 1.03 ± 0.06 | activity coefficient (323.15 K): 0.97 ± 0.05 | activity coefficient (333.15 K): 0.93 ± 0.05 | activity coefficient (343.15 K): 0.9 ± 0.05 | activity coefficient (353.15 K): 0.88 ± 0.05 | activity coefficient (363.15 K): 0.85 ± 0.05

CCCCCCCCC [nonane] + CCCCOP(=O)([O-])OCCCC.CCCCn1cc[n+](C)c1
activity coefficient (313.15 K): 7.69 ± 0.46 | activity coefficient (323.15 K): 7.47 ± 0.45 | activity coefficient (333.15 K): 7.31 ± 0.44 | activity coefficient (343.15 K): 7.13 ± 0.42 | activity coefficient (353.15 K): 7.02 ± 0.42 | activity coefficient (363.15 K): 6.88 ± 0.41

CC1CCCCC1 [methylcyclohexane] + CCCCOP(=O)([O-])OCCCC.CCCCn1cc[n+](C)c1
activity coefficient (313.15 K): 3.7 ± 0.22 | activity coefficient (323.15 K): 3.61 ± 0.21 | activity coefficient (333.15 K): 3.54 ± 0.21 | activity coefficient (343.15 K): 3.48 ± 0.21 | activity coefficient (353.15 K): 3.41 ± 0.2 | activity coefficient (363.15 K): 3.35 ± 0.2
